Reference: patent US20250312349A1, “COMPOSITION AND METHODS OF TREATING INTRACELLULAR PATHOGEN INFECTION” (UNIVERSITY HOSPITALS CLEVELAND MEDICAL CENTER, priority 2024, published 2025)

Legend:
[1] = system: phospho-S473 Akt and PTEN around tachyzoites; test: Immunofluorescence of brain sections from infected mice treated for four days; type: in vivo, C57BL/6 mice; details: 10 mg kg^-1 twice daily for 4 days
Source text: Scale bar, 50 m. […] Scale bar, 50 m. […] (G). […] Results are representative of 2 independent experiments. […] Scale bar, 10 m.
C57BL/6 mice (Jackson Laboratories, Bar Harbor, ME) or Becn 1^+/− (C57BL/6 background; gift from Beth Levine, University of Texas Southwestern, Dallas, TX) were bred at the Animal Resource Center at Case Western Reserve University. Female mice between the ages of 6 to 8 weeks old were infected with 10 cysts of the ME49 T. gondii for four weeks. In certain experiments, mice were euthanized at 4 weeks to evaluate severity of ocular and cerebral toxoplasmosis.

ME49 T. gondii [2] = test: Suboptimal dose combination in mice with ocular and cerebral toxoplasmosis; type: in vivo, C57BL/6 mice; details: 2.5 mg/Kg once a day, 14 days
Experimental: C57BL/6 mice that had been infected with tissue cysts of ME49 T. gondii for 4 weeks (at a time when animals have developed ocular and cerebral toxoplasmosis), were treated with suboptimal dose of Saracatinib (2.5 mg/Kg once a day) with or without suboptimal dose of Pyrimethamine (4.2 mg/Kg once a day) for 14 days.

[3] = Brain penetration and tolerability of Saracatinib; type: in vivo; details: mice, 10 or 15 mg kg^-1 twice per day
ME49 T. gondii [4] = test: Pre-established ocular and cerebral toxoplasmosis in B6 mice, 4 weeks of treatment; type: in vivo, C57BL/6 mice; details: four weeks
Source text: Brains and eyes were fixed in 10% formalin before paraffin embedding. Hematoxylin & eosin (H&E) and periodic acid Schiff hematoxylin (P.A.S.H) were used to stain sections from eyes and brains respectively. Brain and ocular histopathology were scored as described previously.

[5] = in vivo; cited from earlier work
CHO cells = test: MTT assay of potential cell toxicity, CHO cells; type: cell-based, Chinese Hamster; details: 1 μM, 24 hrs
Experimental: FIG. 9 illustrates graphs showing the assessment of potential cell toxicity of Saracatinib. CHO cells and retinal pigment epithelial cells (RPE) were treated with various concentrations of Saracatinib (1 nM-1000 μM) followed by MTT assay 24 hrs. after incubation with Saracatinib. The data are pooled from duplicate or triplicate independent samples obtained in 3 different experiments. […] Data are shown as mean±SEM. Significance was determined by comparing all groups to the control using one-way ANOVA with Holm-Sidak multiple comparison test (*p<0.05). (PDF)

[6] = system: retinal pigment epithelial cells (RPE); test: MTT assay of potential cell toxicity, RPE cells; type: cell-based, human; details: 1 μM, 24 hrs
Experimental: Data are shown as mean±SEM. […] Three independent experiments were performed.

Akt = test: Immunoblot of phospho-S473 Akt in T. gondii-infected CHO cells; type: cell-based, Chinese Hamster; details: lysates at 2 h
Experimental: FIGS. 4(A-C) illustrate Src inhibition induces T. gondii killing by impairing Akt activation. (A) CHO cells were challenged with RH-T. gondii. Cell lysates collected at 2 h were probed for Akt and phospho-S473 Akt. Relative density of phospho-Akt was normalized to total Akt and compared to the uninfected sample. Densitometry graph shown as mean±SEM from 3 independent experiments. (B-C) CHO cells or primary brain endothelial cells were transfected with plasmids encoding HA-tagged CA- or HA-tagged WT-Akt. Lysates were probed for actin, HA, Akt and phospho-S473 Akt. Cells were challenged with T. gondii and treated with Saracatinib (1 μM). Cell lysates collected at 2 h were probed for Akt and phospho-S473 Akt. Relative density of phospho-Akt and densitometries were examined as above. Percentages of infected cells and tachyzoites per 100 cells were assessed at 24 h. Data are shown as mean±SEM. The graphs show data from 6 independent monolayers pooled from 3 different experiments. Data points are shown as circles, triangles, or squares corresponding to individual monolayers within each experiment. […]

ME49 T. gondii [7] = test: Ocular and cerebral toxoplasmosis in Dexamethasone-treated mice; type: in vivo, C57BL/6 mice; details: 10 mg kg-1 twice per day, 2 weeks, vs vehicle
[8] = 10 or 15 mg kg^-1 oral gavage twice per day

CN1CCN(CCOc2cc(OC3CCOCC3)c3c(Nc4c(Cl)ccc5c4OCO5)ncnc3c2)CC1 [Saracatinib, N-(5-chloro-1,3-benzodioxol-4-yl)-7-(2-(4-methylpiperazin-1-yl)ethoxy)-5-(tetrahydro-2H-pyran-4-yloxy)quinazolin-4-amine]
phospho-S473 Akt accumulation around tachyzoites [1]: markedly reduced
recruitment of PTEN around tachyzoites [1]: induced recruitment
load of tissue cysts (ME49 T. gondii [2]): neither the low dose Saracatinib nor the low dose Pyrimethamine decreased
predicted brain concentrations [3]: ~0.2 µM
mice with no significant ocular inflammation (ME49 T. gondii [4]; 15 mg kg^-1 twice per day): 75%
perivascular and diffuse inflammation in the brains (ME49 T. gondii [4]; 15 mg kg^-1 twice per day): No significant perivascular and diffuse inflammation were detected
histopathology in eye and brain (ME49 T. gondii [4]; [8]): marked reduction
parasite load in the eye and brain (ME49 T. gondii [4]; [8]): profound reduction
blood-brain barrier penetration [5]: penetrates the blood-brain barrier
tolerability [5]: well-tolerated
cell toxicity (MTT) (CHO cells): non-toxic
cell toxicity (MTT) [6]: non-toxic
T. gondii-induced phosphorylation of Akt at Ser473 (Akt): abrogated
histopathology in the eye and brain (ME49 T. gondii [7]): significantly reduced
parasite load in the eye and brain (ME49 T. gondii [7]): significantly reduced
